Laboratory results as given in patent US20260049077A1, “Neurotrophic Receptor Tyrosine Kinase (NTRK) Inhibitors and Methods Using Same” (Baylor College of Medicine, priority 2022, published 2026).

How the values were obtained:
[1] = Metabolic stability in human liver microsomes (HLM)
NTRK1 = NTRK1 (Homo sapiens (Human), UniProt P04629); assay: NTRK1 inhibition (IC50); conditions: read-out: NTRK1 IC50
NTRK2 [2] = target: T1, NTRK2 (Homo sapiens (Human), UniProt Q16620); assay: NTRK2 inhibition (IC50); format: biochemical
T1 sequence (Q16620 32-822): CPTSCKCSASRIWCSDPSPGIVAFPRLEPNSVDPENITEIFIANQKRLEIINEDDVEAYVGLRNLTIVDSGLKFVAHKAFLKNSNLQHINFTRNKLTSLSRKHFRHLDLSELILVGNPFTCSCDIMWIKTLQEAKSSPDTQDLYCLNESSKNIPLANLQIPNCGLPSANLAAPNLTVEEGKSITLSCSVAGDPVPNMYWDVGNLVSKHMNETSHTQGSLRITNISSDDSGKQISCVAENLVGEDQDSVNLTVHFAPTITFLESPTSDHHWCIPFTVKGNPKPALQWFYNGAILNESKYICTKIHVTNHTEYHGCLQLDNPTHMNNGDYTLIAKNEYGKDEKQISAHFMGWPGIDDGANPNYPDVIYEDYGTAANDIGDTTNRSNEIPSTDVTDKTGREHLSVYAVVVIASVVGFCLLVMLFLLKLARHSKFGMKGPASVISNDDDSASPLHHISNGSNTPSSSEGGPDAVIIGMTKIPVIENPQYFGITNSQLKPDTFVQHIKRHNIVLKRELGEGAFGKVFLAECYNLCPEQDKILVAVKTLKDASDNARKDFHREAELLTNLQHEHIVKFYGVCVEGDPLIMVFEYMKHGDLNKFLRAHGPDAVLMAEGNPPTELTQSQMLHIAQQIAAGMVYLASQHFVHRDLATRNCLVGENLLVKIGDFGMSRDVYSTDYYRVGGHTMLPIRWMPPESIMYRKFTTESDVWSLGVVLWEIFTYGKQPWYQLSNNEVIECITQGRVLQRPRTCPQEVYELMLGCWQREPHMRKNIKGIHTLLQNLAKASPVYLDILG

[3] = Metabolic stability in mouse liver microsomes (MLM)
NTRK3 = NTRK3 (Homo sapiens (Human), UniProt Q16288); assay: NTRK3 inhibition (IC50); conditions: read-out: NTRK3 IC50
NTRK3, sequence (Q16288 32-839): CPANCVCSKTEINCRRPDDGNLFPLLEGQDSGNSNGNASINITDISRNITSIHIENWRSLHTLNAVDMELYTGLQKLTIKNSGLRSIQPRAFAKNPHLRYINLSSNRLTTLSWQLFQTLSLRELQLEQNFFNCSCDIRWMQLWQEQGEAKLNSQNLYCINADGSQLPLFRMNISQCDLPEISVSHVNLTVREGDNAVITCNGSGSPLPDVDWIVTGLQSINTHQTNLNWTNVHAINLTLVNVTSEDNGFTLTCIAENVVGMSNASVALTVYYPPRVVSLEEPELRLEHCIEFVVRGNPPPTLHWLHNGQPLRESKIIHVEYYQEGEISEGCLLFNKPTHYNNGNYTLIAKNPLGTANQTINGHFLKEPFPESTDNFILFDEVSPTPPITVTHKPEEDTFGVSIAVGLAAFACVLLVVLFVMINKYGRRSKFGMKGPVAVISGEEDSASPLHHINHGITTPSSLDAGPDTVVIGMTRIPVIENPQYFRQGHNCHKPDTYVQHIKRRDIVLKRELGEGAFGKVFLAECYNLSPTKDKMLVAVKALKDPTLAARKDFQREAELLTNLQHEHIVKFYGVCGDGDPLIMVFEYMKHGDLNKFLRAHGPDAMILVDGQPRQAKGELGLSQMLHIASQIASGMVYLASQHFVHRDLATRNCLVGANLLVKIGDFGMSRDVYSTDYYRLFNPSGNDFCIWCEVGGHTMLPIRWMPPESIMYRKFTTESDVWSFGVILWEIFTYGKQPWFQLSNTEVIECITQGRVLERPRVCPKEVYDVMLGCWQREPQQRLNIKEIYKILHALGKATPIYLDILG

[4] = Endometriosis mouse model, liver and kidney toxicity (organ weight, ALT, AST); format: in vivo; set-up: ALT (Mean ± SD) / AST (Mean ± SD): unit not given here; conditions: for effect on liver and/or kidney weight and/or serum elevation of ALT and AST: 10 mg/kg, mice with endometriotic lesions; for ALT (Mean ± SD) / AST (Mean ± SD): i.p. dose of 10 mg/kg/day for 14 days; for impact on liver and kidney weights: mice treated for 14 days
Description: (§1) In one aspect, the present disclosure provides exemplary data relating to the administration of NTRK2 inhibitors in a mouse model of endometriosis (FIG. 14). In certain embodiments, the recipient mouse is administered the NTRK2 inhibitor and/or controls on day 14 after intraperitoneal injection of endometrium of the donor mouse. In certain embodiments, the recipient mouse is sacrificed and quantitatively assessed on day 28.

endometriotic lesions = assay: Endometriosis mouse model, lesion efficacy; format: in vivo; conditions: for endometriotic lesion growth: excised lesions
Description: FIGS. 17A-17F depict the robust efficacy of the inhibitory compounds of the present disclosure as NTRK2 inhibitors for inhibition of endometriotic lesion growth in mice utilizing CDD-3132 as an example. FIG. 17A provides a schematic overview of the experiment performed. FIGS. 17B-17C provide photographs showing excised lesions with administration of a control (FIG. 17B) or CDD-3132 (10 mg/kg/day) (FIG. 17C).
as §1

NTRK2 [5] = target: T1, NTRK2; assay: Promega NTRK2 NanoBRET live-cell target engagement; format: cell-based; conditions: live cells
Source text: FIGS. 6A-6B show the live-cell engagement (FIG. 6A) concept and an NTRK2 example (FIG. 6B). FIG. 6A: Depiction of Promega's NanoBRET target engagement system as per their website. The system involves cell-based competitive displacement of a fluorescent NanoBRET tracer bound reversibly to a NanoLuc fusion protein. Test compounds displace the tracer dependent on their affinity for the target and […] the NanoBRET signal. FIG. 6B: Example of the use of Promega's NTRK2 NanoBRET cell-based system. Each NTRK2 compound (Cpd) was assayed in kinase assays and in cells. Multiple NTRK2 compounds enter the cell and are potent nanomolar inhibitors in these assays (% normalized to no Cpd).
As described elsewhere herein, hit compounds, including but not limited to CDD-2262, and its smaller analog, CDD-2330, were synthesized off-DNA and evaluated for NTRK2 activity.

[6] = Brain uptake in mice 24 hours post-administration; format: in vivo, mouse; conditions: mouse, brain, 24 h, read-out: Brain Concentration at 24 h (ng/mg)
[7] = 10 mg/kg, compared to vehicle control

NTRK1, sequence (P04629 33-796): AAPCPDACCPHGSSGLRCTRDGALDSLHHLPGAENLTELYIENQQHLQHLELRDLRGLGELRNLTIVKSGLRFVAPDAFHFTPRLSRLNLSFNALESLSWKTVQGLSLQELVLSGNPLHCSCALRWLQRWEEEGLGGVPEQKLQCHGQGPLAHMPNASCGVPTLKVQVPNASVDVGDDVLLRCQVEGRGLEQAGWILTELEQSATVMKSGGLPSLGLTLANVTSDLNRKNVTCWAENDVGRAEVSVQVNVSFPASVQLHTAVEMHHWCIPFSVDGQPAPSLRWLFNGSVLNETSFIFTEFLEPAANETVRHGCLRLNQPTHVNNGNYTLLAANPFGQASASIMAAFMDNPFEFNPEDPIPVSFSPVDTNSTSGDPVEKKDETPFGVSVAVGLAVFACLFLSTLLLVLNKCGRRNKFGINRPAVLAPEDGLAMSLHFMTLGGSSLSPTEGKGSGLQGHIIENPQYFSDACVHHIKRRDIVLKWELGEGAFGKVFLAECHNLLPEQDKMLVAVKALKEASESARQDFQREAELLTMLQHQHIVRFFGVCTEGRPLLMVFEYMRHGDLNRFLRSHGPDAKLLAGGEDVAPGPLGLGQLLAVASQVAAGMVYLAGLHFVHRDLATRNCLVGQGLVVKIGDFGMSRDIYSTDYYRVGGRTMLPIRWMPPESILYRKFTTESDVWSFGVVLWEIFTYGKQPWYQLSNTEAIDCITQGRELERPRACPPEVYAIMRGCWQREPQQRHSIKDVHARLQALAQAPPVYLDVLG

`CC(C)N(Cc1ccn2ncc(C(N)=O)c2c1)C(=O)CNc1ccc(OC(F)(F)F)cc1` [CDD-3254, 5-((N-isopropyl-2-((4-(trifluoromethoxy)phenyl)amino)acetamido)methyl)pyrazolo[1,5-a]pyridine-3-carboxamide] showed a half-life [1] of 3.22 h, an IC50 (NTRK1) of 277 nM and an IC50 (NTRK2 [2]) of 59 nM. For the same compound, the half-life [3] was 2.38 h and the IC50 (NTRK3) was 142 nM.
With `CN(Cc1ccn2ncc(C(N)=O)c2c1)C(=O)COc1ccc(OC(F)(F)F)cc1` [CDD-3132, 5-((N-methyl-2-(4-(trifluoromethoxy)phenoxy)acetamido)methyl)pyrazolo[1,5-a]pyridine-3-carboxamide] the half-life [1] was 11.5 h, the IC50 (NTRK1) was 4560 nM and the “effect on liver and/or kidney weight and/or serum elevation of ALT and AST” value (“effect … of ALT and AST” below) [4] was “little to no effect”. The “ALT (Mean ± SD)” value [4] was 20.5 ± 12.6, the “AST (Mean ± SD)” value [4] was 33.5 ± 20.6 and the “impact on liver and kidney weights” value [4] was “no significant impact”. The IC50 (NTRK2 [2]) was 517 nM, the half-life [3] was 11.8 h and the IC50 (NTRK3) was 1370 nM. For the same compound, the “number, volume and mass of lesions” value (endometriotic lesions; [7]) was “reduction of lesions, volume of lesions, and mass of lesions”, the “size of endometriotic lesions” value (endometriotic lesions; [7]) was “decreased size of endometriotic lesions” and the endometriotic lesion growth (endometriotic lesions; 10 mg/kg) was “inhibiting endometriotic lesion growth”. For the same compound, the “proliferation, vascularization, macrophage infiltration, inflammation within endometriotic lesions” value (endometriotic lesions; 10 mg/kg, H&E staining, confocal microscopy) was “reduction of proliferation, vascularization, macrophage infiltration, and/or inflammation”.
With `CC(=O)c1ccc(OCC(=O)N(C)Cc2ccn3ncc(C(N)=O)c3c2)cc1` [CDD-3257, 5-((2-(4-acetylphenoxy)-N-methylacetamido)methyl)pyrazolo[1,5-a]pyridine-3-carboxamide] the half-life [1] was > 3.33 h, the IC50 (NTRK1) was 58200 nM and the IC50 (NTRK2 [2]) was 10600 nM. The half-life [3] was > 3.33 h and the IC50 (NTRK3) was 10900 nM.
For `CC(=O)c1ccc(OCC(=O)N(Cc2ccn3ncc(C(N)=O)c3c2)C(C)C)cc1` [CDD-3256, 5-((2-(4-acetylphenoxy)-N-isopropylacetamido)methyl)pyrazolo[1,5-a]pyridine-3-carboxamide], the half-life [1] was > 3.33 h, the IC50 (NTRK1) was 1870 nM and the IC50 (NTRK2 [2]) was 223 nM. The half-life [3] was > 3.33 h and the IC50 (NTRK3) was 312 nM.
`CN(Cc1ccn2ncc(C(N)=O)c2c1)C(=O)CNc1ccc(OC(F)(F)F)cc1` [CDD-3258, 5-((N-methyl-2-((4-(trifluoromethoxy)phenyl)amino)acetamido)methyl)pyrazolo[1,5-a]pyridine-3-carboxamide] gave a half-life [1] of 4.5 h, an IC50 (NTRK1) of 11000 nM and an IC50 (NTRK2 [2]) of 963 nM. The half-life [3] was 5.63 h and the IC50 (NTRK3) was 2320 nM.
With `CC(C)N(Cc1ccn2nccc2c1)C(=O)Nc1ccc(OC(F)(F)F)cc1` [CDD-2299, 1-isopropyl-1-(pyrazolo[1,5-a]pyridin-5-ylmethyl)-3-(4-(trifluoromethoxy)phenyl)urea] the half-life [1] was 0.718 h, the IC50 (NTRK1) was 31 nM and the “cell penetration and effect in NanoBRET assays” value (NTRK2 [5]) was “able to penetrate cell membranes to induce an effect”. For the same compound, the IC50 (NTRK2 [2]) was 3.7 nM and the half-life [3] was 0.337 h.
Compound `CC(C)N(Cc1ccn2ncc(C#N)c2c1)C(=O)Nc1ccc(OC(F)(F)F)cc1` [CDD-2741, 1-((3-cyanopyrazolo[1,5-a]pyridin-5-yl)methyl)-1-isopropyl-3-(4-(trifluoromethoxy)phenyl)urea] has a half-life [1] of 2.13 h, an IC50 (NTRK1) of 11.7 nM and an IC50 (NTRK2 [2]) of 5.8 nM. For the same compound, the half-life [3] was 0.683 h and the IC50 (NTRK3) was 4.4 nM.
For `CC(C)N(Cc1ccn2ncc(C(N)=O)c2c1)C(=S)Nc1ccc(OC(F)(F)F)cc1` [CDD-3119, 5-((1-isopropyl-3-(4-(trifluoromethoxy)phenyl)thioureido)methyl)pyrazolo[1,5-a]pyridine-3-carboxamide], the half-life [1] was 1.6 h, the IC50 (NTRK1) was 3.8 nM and the “effect … of ALT and AST” value [4] was “little to no effect”. The “ALT (Mean ± SD)” value [4] was 21.3 ± 4.9, the “AST (Mean ± SD)” value [4] was 53.2 ± 18.5 and the “impact on liver and kidney weights” value [4] was “no significant impact”. It also gave a concentration at 24 h [6] of 140 ng/g, an IC50 (NTRK2 [2]) of 3.6 nM and a half-life [3] of 4.83 h. The IC50 (NTRK3) was 6.6 nM, the “number, volume and mass of lesions” value (endometriotic lesions; [7]) was “reduction of lesions, volume of lesions, and mass of lesions” and the endometriotic lesion growth (endometriotic lesions; 10 mg/kg) was “inhibiting endometriotic lesion growth”.
`C=C(C)c1ccc(OCC(=O)N(Cc2ccn3ncc(C(N)=O)c3c2)C(C)C)cc1` [CDD-3255, 5-((N-isopropyl-2-(4-(prop-1-en-2-yl)phenoxy)acetamido)methyl)pyrazolo[1,5-a]pyridine-3-carboxamide] showed a half-life [1] of 0.75 h, an IC50 (NTRK1) of 357 nM and an IC50 (NTRK2 [2]) of 31.5 nM. The half-life [3] was 0.317 h and the IC50 (NTRK3) was 54 nM.
Work on `CC(C)N(Cc1ccn2ncc(C(N)=O)c2c1)C(=O)COc1ccc(C(C)(C)C)cc1` [CDD-3184, 5-((2-(4-(tert-butyl)phenoxy)-N-isopropylacetamido)methyl)pyrazolo[1,5-a]pyridine-3-carboxamide] yielded a half-life [1] of 1.78 h, an IC50 (NTRK1) of 61 nM and an IC50 (NTRK2 [2]) of 6.7 nM. It also gave a half-life [3] of 0.102 h and an IC50 (NTRK3) of 15.3 nM.
Work on `CC(C)N(Cc1ccn2ncc(C(N)=O)c2c1)C(=O)COc1ccc(OC(F)(F)F)cc1` [CDD-3133, 5-((N-isopropyl-2-(4-(trifluoromethoxy)phenoxy)acetamido)methyl)pyrazolo[1,5-a]pyridine-3-carboxamide] yielded a half-life [1] of 10 h, an IC50 (NTRK1) of 16.6 nM and an IC50 (NTRK2 [2]) of 4.3 nM. The half-life [3] was 3.08 h and the IC50 (NTRK3) was 10.1 nM.
`O=C(Nc1ccccc1C(F)(F)F)N(Cc1ccn2nccc2c1)C1CCC1` [CDD-2274, 1-cyclobutyl-1-(pyrazolo[1,5-a]pyridin-5-ylmethyl)-3-(2-(trifluoromethyl)phenyl)urea] gave a half-life [1] of 0.192 h, an IC50 (NTRK1) of 12.4 nM and an IC50 (NTRK2 [2]) of 4.5 nM. It also gave a half-life [3] of 0.0833 h and an IC50 (NTRK3) of 5.3 nM.
In the case of `CC(C)(CO)n1cc(C(=O)c2cncc(NC(=O)Cc3ccc(Cl)cn3)c2)c2cnc(N)nc21` [PF-06273340, N-[5-[[2-Amino-7-(2-hydroxy-1,1-dimethylethyl)-7H-pyrrolo[2,3-d]pyrimidin-5-yl]carbonyl]-3-pyridinyl]-5-chloro-2-pyridineacetamide, reference compound], the half-life [1] is reported as 8.37 h, the “ALT (Mean ± SD)” value [4] is reported as 15.1 ± 1.6 and the “AST (Mean ± SD)” value [4] is reported as 25.3 ± 7.1. For the same compound, the concentration at 24 h [6] was 80 ng/g, the half-life [3] was 3.37 h and the “number, volume and mass of lesions” value (endometriotic lesions; [7]) was “reduction of lesions, volume of lesions, and mass of lesions”. The endometriotic lesion growth (endometriotic lesions; 10 mg/kg) was “inhibiting endometriotic lesion growth”.
For `NC(=O)c1cnn2ccc(CNC(=S)Nc3ccc(OC(F)(F)F)cc3)cc12` [CDD-3131, 5-((3-(4-(trifluoromethoxy)phenyl)thioureido)methyl)pyrazolo[1,5-a]pyridine-3-carboxamide], the half-life [1] was 3.95 h, the IC50 (NTRK1) was 749 nM and the IC50 (NTRK2 [2]) was 132 nM. The half-life [3] was 5.85 h and the IC50 (NTRK3) was 153 nM.
`NC(=O)c1cnn2ccc(CN(C(=O)Nc3ccc(OC(F)(F)F)cc3)C3CC3)cc12` [CDD-2738, 5-((1-cyclopropyl-3-(4-(trifluoromethoxy)phenyl)ureido)methyl)pyrazolo[1,5-a]pyridine-3-carboxamide] gave a half-life [1] of 6.35 h, an IC50 (NTRK1) of 7.5 nM and a concentration at 24 h [6] of 2300 ng/g. For the same compound, the IC50 (NTRK2 [2]) was 0.52 nM, the half-life [3] was 3.73 h and the IC50 (NTRK3) was 1.51 nM.
With `CN(Cc1ccn2ncc(C(N)=O)c2c1)C(=S)Nc1ccc(OC(F)(F)F)cc1` [CDD-3118, 5-((1-methyl-3-(4-(trifluoromethoxy)phenyl)thioureido)methyl)pyrazolo[1,5-a]pyridine-3-carboxamide] the half-life [1] was 6.37 h, the IC50 (NTRK1) was 151 nM and the IC50 (NTRK2 [2]) was 19 nM. For the same compound, the half-life [3] was 11.5 h and the IC50 (NTRK3) was 21.5 nM.
For `O=C(Nc1ccccc1C(=O)NC1CCCCNC1=O)c1cc2ccccc2s1` (stereo not drawn) [ANA-12, reference compound], the endometriotic lesion regression (endometriotic lesions; mice) was “endometriotic lesion regression”.
In the case of `CC(C)(CO)n1cc(C(=O)c2cncc(NC(=O)Cc3ccc(Cl)cn3)c2)c2cnc(N)nc21` [PF-0672, reference compound], the “effect … of ALT and AST” value [4] is reported as “little to no effect”.
`CC(C)N(Cc1ccn2ncc(C(=N)NO)c2c1)C(=O)Nc1ccc(OC(F)(F)F)cc1` [CDD-2744, N-hydroxy-5-((1-isopropyl-3-(4-(trifluoromethoxy)phenyl)ureido)methyl)pyrazolo[1,5-a]pyridine-3-carboximidamide] gave a half-life [1] of 6.47 h, an IC50 (NTRK1) of 18.1 nM and an IC50 (NTRK2 [2]) of 1.7 nM. For the same compound, the half-life [3] was 2.02 h and the IC50 (NTRK3) was 2.9 nM.
